# From US20250197406A1, “INDAZOLES AS HEMATOPOIETIC PROGENITOR KINASE 1 (HPK1) INHIBITORS AND METHODS FOR USING SAME” (1ST Biotherapeutics, Inc., priority 2022, published 2025)
# Counter-ions that a name gives are not always drawn.
# Target: recombinant human HPK1 (Homo sapiens (Human), UniProt Q92918)
# Test: HPK1 kinase assay (Promega ADP-Glo kinase assay)
# Type: biochemical
# Conditions: In vitro activity against HPK1, 5 ng HPK1, MBP substrate, ATP 25 μM, 30° C. 40 minutes
# Description: HPK1 kinase activity was measured by Promega's ADP-Glo™ kinase assay. In this assay, 5 ng of recombinant human HPK1 (signalchem) is incubated with 5 μL of compounds (0.5% DMSO), 5 μL of MBP (0.5 μg/μl) and 5 μL of ATP (25 μM) in buffer (40 mM Tris, 7.5; 20 mM MgCl2; 0.1 mg/ml BSA; 50 μM DTT.). The assay was started by incubating the reaction mixture in a 96-well plate at 30° C. for 40 minutes. After the incubation, 25 μL ADP-Glo reagent was added and the reaction was incubated at room temperature for 40-min to stop the reaction and degrade residual ATP. The ADP product was then converted to ATP by adding 50 μL per well of detection reagent. Luminescence was detected after 30-min room temperature incubation with the Molecular device I3X plate reader. The IC50 values were calculated from a series of percent inhibition values determined at a range of inhibitor concentration using software routines as implemented in the GraphPad Prism 7 software and SigmaPlot13.0.
# Sequence of recombinant human HPK1 (Q92918 whole entry): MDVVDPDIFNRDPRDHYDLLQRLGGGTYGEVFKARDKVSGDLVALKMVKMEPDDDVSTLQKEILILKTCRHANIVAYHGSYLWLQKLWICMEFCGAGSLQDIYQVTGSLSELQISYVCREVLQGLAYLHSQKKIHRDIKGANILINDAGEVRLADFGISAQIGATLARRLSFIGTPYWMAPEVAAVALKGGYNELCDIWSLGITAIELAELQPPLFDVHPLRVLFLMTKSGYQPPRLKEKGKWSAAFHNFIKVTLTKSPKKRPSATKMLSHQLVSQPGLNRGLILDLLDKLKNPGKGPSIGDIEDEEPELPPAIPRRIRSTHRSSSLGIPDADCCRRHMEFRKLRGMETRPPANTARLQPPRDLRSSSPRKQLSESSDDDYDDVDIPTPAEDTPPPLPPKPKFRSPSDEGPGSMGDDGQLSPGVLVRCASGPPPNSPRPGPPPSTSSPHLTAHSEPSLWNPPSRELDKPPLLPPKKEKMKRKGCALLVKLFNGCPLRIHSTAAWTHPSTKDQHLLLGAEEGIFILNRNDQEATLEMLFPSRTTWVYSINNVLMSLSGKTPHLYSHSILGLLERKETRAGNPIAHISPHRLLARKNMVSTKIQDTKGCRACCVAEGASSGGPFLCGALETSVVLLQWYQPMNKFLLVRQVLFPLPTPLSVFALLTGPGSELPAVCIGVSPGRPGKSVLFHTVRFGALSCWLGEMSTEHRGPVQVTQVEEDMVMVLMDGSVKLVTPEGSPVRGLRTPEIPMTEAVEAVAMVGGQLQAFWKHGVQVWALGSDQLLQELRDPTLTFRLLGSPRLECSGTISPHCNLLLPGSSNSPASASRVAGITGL
smiles,measurement,value
"CC(C)Nc1c(F)c(Cl)c(-c2cn3cc(NC(=O)C4CCC4)nc3cn2)c2cn[nH]c12 [Example 60, N-(6-(5-chloro-6-fluoro-7-(isopropylamino)-1H-indazol-4-yl)imidazo[1,2-a]pyrazin-2-yl)cyclobutanecarboxamide]",IC50,< 100 nM
"O=C(Nc1cn2cc(-c3c(C(F)F)c(F)c(C(O)C4CC4)c4[nH]ncc34)ncc2n1)[C@@H]1C[C@@H]1F (stereo partly drawn) [Example 19, (1S,2S)-N-(6-(7-(cyclopropyl(hydroxy)methyl)-5-(difluoromethyl)-6-fluoro-1H-indazol-4-yl)imidazo[1,2-a]pyrazin-2-yl)-2-fluorocyclopropane-1-carboxamide]",IC50,< 100 nM
"CC(C)(C)[S+]([O-])NC(c1c(F)c(C(F)(F)F)c(-c2cn3cc(NC(=O)[C@@H]4C[C@@H]4F)nc3cn2)c2cn[nH]c12)C1CC1 (stereo partly drawn) [Example 97, (1S,2S)-N-(6-(7-(((tert-butylsulfinyl)amino)(cyclopropyl)methyl)-6-fluoro-5-(trifluoromethyl)-1H-indazol-4-yl)imidazo[1,2-a]pyrazin-2-yl)-2-fluorocyclopropane-1-carboxamide]",IC50,< 100 nM
"CC(C)Nc1c(F)c(Cl)c(-c2cn3cc(NC(=O)CCO)nc3cn2)c2cn[nH]c12 [Example 130, N-(6-(5-chloro-6-fluoro-7-(isopropylamino)-1H-indazol-4-yl)imidazo[1,2-a]pyrazin-2-yl)-3-hydroxypropanamide]",IC50,< 100 nM
"Cc1c(F)c(C(C)N(C)C)c2[nH]ncc2c1-c1cn2cc(NC(=O)[C@@H]3C[C@@H]3F)nc2cn1 (stereo partly drawn) [Example 12, (1S,2S)-N-(6-(7-(1-(dimethylamino)ethyl)-6-fluoro-5-methyl-1H-indazol-4-yl)imidazo[1,2-a]pyrazin-2-yl)-2-fluorocyclopropane-1-carboxamide]",IC50,501 to 1000 nM
"CC(=O)NC(C)c1c(F)c(C(F)F)c(-c2cn3cc(NC(=O)[C@@H]4C[C@@H]4F)nc3cn2)c2cn[nH]c12 (stereo partly drawn) [Example 53, (1S,2S)-N-(6-(7-(1-acetamidoethyl)-5-(difluoromethyl)-6-fluoro-1H-indazol-4-yl)imidazo[1,2-a]pyrazin-2-yl)-2-fluorocyclopropane-1-carboxamide]",IC50,< 100 nM
"Cc1c(F)c(C(NC(=O)C(F)(F)F)C2CC2)c2[nH]ncc2c1-c1cn2cc(NC(=O)[C@@H]3C[C@@H]3F)nc2cn1 (stereo partly drawn) [Example 107, (1S,2S)-N-(6-(7-(cyclopropyl(2,2,2-trifluoroacetamido)methyl)-6-fluoro-5-methyl-1H-indazol-4-yl)imidazo[1,2-a]pyrazin-2-yl)-2-fluorocyclopropane-1-carboxamide]",IC50,< 100 nM
"CC(C)Nc1c(F)c(C(F)F)c(-c2cn3cc(NC(=O)C4CC4)nc3cn2)c2cn[nH]c12 [Example 156, N-(6-(5-(difluoromethyl)-6-fluoro-7-(isopropylamino)-1H-indazol-4-yl)imidazo[1,2-a]pyrazin-2-yl)cyclopropanecarboxamide]",IC50,< 100 nM
"Cc1c(F)c(NC(C)C)c2[nH]ncc2c1-c1cn2cc(NC(=O)[C@H]3C[C@@H]3F)nc2cn1 [Example 35, (1R,2S)-2-fluoro-N-(6-(6-fluoro-7-(isopropylamino)-5-methyl-1H-indazol-4-yl)imidazo[1,2-a]pyrazin-2-yl)cyclopropane-1-carboxamide]",IC50,< 100 nM
"CC(=O)N1CC(Oc2c(F)c(Cl)c(-c3cn4cc(NC(=O)[C@@H]5C[C@@H]5F)nc4cn3)c3cn[nH]c23)C1 [Example 142, (1S,2S)-N-(6-(7-((1-acetylazetidin-3-yl)oxy)-5-chloro-6-fluoro-1H-indazol-4-yl)imidazo[1,2-a]pyrazin-2-yl)-2-fluorocyclopropane-1-carboxamide]",IC50,101 to 500 nM
"COC(=O)NC1(C(=O)Nc2cn3cc(-c4c(Cl)c(F)c(NC(C)C)c5[nH]ncc45)ncc3n2)CC1 [Example 47, methyl (1-((6-(5-chloro-6-fluoro-7-(isopropylamino)-1H-indazol-4-yl)imidazo[1,2-a]pyrazin-2-yl)carbamoyl)cyclopropyl)carbamate]",IC50,501 to 1000 nM
"C[C@H](NC(=O)C(F)(F)F)c1c(F)c(Cl)c(-c2cn3cc(NC(=O)[C@@H]4C[C@@H]4F)nc3cn2)c2cn[nH]c12 [Example 146, (1S,2S)-N-(6-(5-chloro-6-fluoro-7-((S)-1-(2,2,2-trifluoroacetamido)ethyl)-1H-indazol-4-yl)imidazo[1,2-a]pyrazin-2-yl)-2-fluorocyclopropane-1-carboxamide]",IC50,< 100 nM
"Cc1c(F)c(NC(C)C)c2[nH]ncc2c1-c1cn2cc(NC(=O)Cc3cccnc3)nc2cn1 [Example 93, N-(6-(6-fluoro-7-(isopropylamino)-5-methyl-1H-indazol-4-yl)imidazo[1,2-a]pyrazin-2-yl)-2-(pyridin-3-yl)acetamide]",IC50,< 100 nM
"CC(=O)Nc1cn2cc(-c3c(Cl)c(F)c(C(O)C4CC4)c4[nH]ncc34)ncc2n1 (stereo not drawn) [Example 152, N-(6-(5-chloro-7-(cyclopropyl(hydroxy)methyl)-6-fluoro-1H-indazol-4-yl)imidazo[1,2-a]pyrazin-2-yl)acetamide]",IC50,< 100 nM
"CN(C)c1c(F)c(C(F)(F)F)c(-c2cn3cc(NC(=O)[C@@H]4C[C@H]4F)nc3cn2)c2cn[nH]c12 [Example 30, (1S,2R)-N-(6-(7-(dimethylamino)-6-fluoro-5-(trifluoromethyl)-1H-indazol-4-yl)imidazo[1,2-a]pyrazin-2-yl)-2-fluorocyclopropane-1-carboxamide]",IC50,< 100 nM
"CC(C)Nc1c(F)c(Cl)c(-c2cn3cc(NC(=O)CN4CCOCC4)nc3cn2)c2cn[nH]c12 [Example 90, N-(6-(5-chloro-6-fluoro-7-(isopropylamino)-1H-indazol-4-yl)imidazo[1,2-a]pyrazin-2-yl)-2-morpholinoacetamide]",IC50,< 100 nM
"CCC(=O)Nc1cn2cc(-c3c(Cl)c(F)c(NC(C)C)c4[nH]ncc34)ncc2n1 [Example 61, N-(6-(5-chloro-6-fluoro-7-(isopropylamino)-1H-indazol-4-yl)imidazo[1,2-a]pyrazin-2-yl)propionamide]",IC50,< 100 nM
"CC(C)Nc1c(F)c(Cl)c(-c2cn3cc(NC(=O)C4CCNC4)nc3cn2)c2cn[nH]c12 (stereo not drawn) [Example 74, N-(6-(5-chloro-6-fluoro-7-(isopropylamino)-1H-indazol-4-yl)imidazo[1,2-a]pyrazin-2-yl)pyrrolidine-3-carboxamide]",IC50,< 100 nM
"CCCC(=O)Nc1cn2cc(-c3c(Cl)c(F)c(NC(C)C)c4[nH]ncc34)ncc2n1 [Example 110, N-(6-(5-chloro-6-fluoro-7-(isopropylamino)-1H-indazol-4-yl)imidazo[1,2-a]pyrazin-2-yl)butyramide]",IC50,< 100 nM
"CC(CN)c1c(F)c(C(F)(F)F)c(-c2cn3cc(NC(=O)[C@@H]4C[C@@H]4F)nc3cn2)c2cn[nH]c12 (stereo partly drawn) [Example 98, (1S,2S)-N-(6-(7-(1-aminopropan-2-yl)-6-fluoro-5-(trifluoromethyl)-1H-indazol-4-yl)imidazo[1,2-a]pyrazin-2-yl)-2-fluorocyclopropane-1-carboxamide formate]",IC50,< 100 nM
"COCC(=O)Nc1cn2cc(-c3c(Cl)c(F)c(NC(C)C)c4[nH]ncc34)ncc2n1 [Example 109, N-(6-(5-chloro-6-fluoro-7-(isopropylamino)-1H-indazol-4-yl)imidazo[1,2-a]pyrazin-2-yl)-2-methoxyacetamide]",IC50,< 100 nM
"CCN(CC)C(=O)[C@H]1C[C@H]1C(=O)Nc1cn2cc(-c3c(Cl)c(F)c(NC(C)C)c4[nH]ncc34)ncc2n1 [Example 26, (1R,2S)-N1-(6-(5-chloro-6-fluoro-7-(isopropylamino)-1H-indazol-4-yl)imidazo[1,2-a]pyrazin-2-yl)-N2,N2-diethylcyclopropane-1,2-dicarboxamide]",IC50,< 100 nM
"Cc1c(F)c(C2=CC(=O)CC2)c2[nH]ncc2c1-c1cn2cc(NC(=O)[C@@H]3C[C@@H]3F)nc2cn1 [Example 7, (1S,2S)-2-fluoro-N-(6-(6-fluoro-5-methyl-7-(3-oxocyclopent-1-en-1-yl)-1H-indazol-4-yl)imidazo[1,2-a]pyrazin-2-yl)cyclopropane-1-carboxamide]",IC50,101 to 500 nM
"Cc1c(F)c(C2=CCCC2)c2[nH]ncc2c1-c1cn2cc(NC(=O)[C@@H]3C[C@@H]3F)nc2cn1 [Example 11, (1S,2S)-N-(6-(7-(cyclopent-1-en-1-yl)-6-fluoro-5-methyl-1H-indazol-4-yl)imidazo[1,2-a]pyrazin-2-yl)-2-fluorocyclopropane-1-carboxamide]",IC50,< 100 nM
"COC(c1c(F)c(C)c(-c2cn3cc(NC(=O)[C@@H]4C[C@@H]4F)nc3cn2)c2cn[nH]c12)C1CC1 (stereo partly drawn) [Example 2, (1S,2S)-N-(6-(7-(cyclopropyl(methoxy)methyl)-6-fluoro-5-methyl-1H-indazol-4-yl)imidazo[1,2-a]pyrazin-2-yl)-2-fluorocyclopropane-1-carboxamide]",IC50,< 100 nM
"CC(C)Nc1c(F)c(Cl)c(-c2cn3cc(NC(=O)C4CCCO4)nc3cn2)c2cn[nH]c12 (stereo not drawn) [Example 111, N-(6-(5-chloro-6-fluoro-7-(isopropylamino)-1H-indazol-4-yl)imidazo[1,2-a]pyrazin-2-yl)tetrahydrofuran-2-carboxamide]",IC50,101 to 500 nM
"Cc1c(F)c(C(C2CC2)N2C(=O)c3ccccc3C2=O)c2[nH]ncc2c1-c1cn2cc(NC(=O)[C@@H]3C[C@@H]3F)nc2cn1 (stereo partly drawn) [Example 21, (1S,2S)-N-(6-(7-(cyclopropyl(1,3-dioxoisoindolin-2-yl)methyl)-6-fluoro-5-methyl-1H-indazol-4-yl)imidazo[1,2-a]pyrazin-2-yl)-2-fluorocyclopropane-1-carboxamid]",IC50,< 100 nM
